Results reported in ChEMBL document CHEMBL3751680 (Bioorg Med Chem, 2016).
The source made the active and inactive calls. The rule behind the calls is not given here.

Columns and labels:
Canis lupus familiaris [1] = species on record: Canis lupus familiaris; assay: Binding affinity to hound bone powder assessed as reduction in bound compound level at 50 uM after 1 hr by NMR spectroscopic analysis relative to control; parameters: scale not given: the % may be the effect or the level left
[2] = Binding affinity to synthetic ceramic hydroxyapatite type 1 assessed as reduction in bound compound level at 50 uM after 1 hr by NMR spectroscopic analysis relative to control; parameters: scale not given: the % may be the effect or the level left
Canis lupus familiaris [3] = species on record: Canis lupus familiaris; assay: Binding affinity to hound bone powder assessed as reduction in bound compound level at 50 uM after 16 hrs by NMR spectroscopic analysis relative to control; parameters: scale not given: the % may be the effect or the level left
[4] = Binding affinity to synthetic ceramic hydroxyapatite type 1 assessed as reduction in bound compound level at 50 uM after 16 hrs by NMR spectroscopic analysis relative to control; parameters: scale not given: the % may be the effect or the level left
Estrogen receptor = biological target: T1, Estrogen receptor (Homo sapiens, UniProt P03372); assay: Binding affinity to ERalpha (unknown origin)
T1 sequence (P03372 whole entry): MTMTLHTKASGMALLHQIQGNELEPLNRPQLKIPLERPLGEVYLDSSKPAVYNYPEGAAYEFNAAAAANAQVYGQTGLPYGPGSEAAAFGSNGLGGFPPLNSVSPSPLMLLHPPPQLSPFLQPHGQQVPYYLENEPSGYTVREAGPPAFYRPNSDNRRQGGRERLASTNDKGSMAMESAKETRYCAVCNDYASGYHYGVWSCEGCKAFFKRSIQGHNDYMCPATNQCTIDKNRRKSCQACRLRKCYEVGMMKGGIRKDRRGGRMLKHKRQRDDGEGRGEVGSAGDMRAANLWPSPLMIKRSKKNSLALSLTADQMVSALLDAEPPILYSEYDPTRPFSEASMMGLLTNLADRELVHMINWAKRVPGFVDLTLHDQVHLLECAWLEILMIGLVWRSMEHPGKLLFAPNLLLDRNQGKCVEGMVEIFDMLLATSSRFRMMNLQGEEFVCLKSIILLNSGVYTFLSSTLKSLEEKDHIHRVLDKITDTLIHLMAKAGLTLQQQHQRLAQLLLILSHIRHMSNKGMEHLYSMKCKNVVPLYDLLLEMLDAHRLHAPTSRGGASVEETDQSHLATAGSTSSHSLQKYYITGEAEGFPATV

Canis lupus familiaris [5] = species on record: Canis lupus familiaris; assay: Binding affinity to hound bone powder assessed as reduction in bound compound level at 50 uM after 16 hrs by NMR spectroscopic analysis relative to alendronate; parameters: scale not given: the % may be the effect or the level left
Canis lupus familiaris [6] = species on record: Canis lupus familiaris; assay: Binding affinity to hound bone powder assessed as reduction in bound compound level at 50 uM after 1 hr by NMR spectroscopic analysis relative to alendronate; parameters: scale not given: the % may be the effect or the level left
[7] = Binding affinity to synthetic ceramic hydroxyapatite type 1 assessed as reduction in bound compound level at 50 uM after 1 hr by NMR spectroscopic analysis relative to alendronate; parameters: scale not given: the % may be the effect or the level left
[8] = Binding affinity to synthetic ceramic hydroxyapatite type 1 assessed as reduction in bound compound level at 50 uM after 16 hrs by NMR spectroscopic analysis relative to alendronate; parameters: scale not given: the % may be the effect or the level left
Estrogen receptor beta = Estrogen receptor beta (Homo sapiens, UniProt Q92731); assay: Binding affinity to ERbeta (unknown origin)
Sequence of Estrogen receptor beta (Q92731 whole entry): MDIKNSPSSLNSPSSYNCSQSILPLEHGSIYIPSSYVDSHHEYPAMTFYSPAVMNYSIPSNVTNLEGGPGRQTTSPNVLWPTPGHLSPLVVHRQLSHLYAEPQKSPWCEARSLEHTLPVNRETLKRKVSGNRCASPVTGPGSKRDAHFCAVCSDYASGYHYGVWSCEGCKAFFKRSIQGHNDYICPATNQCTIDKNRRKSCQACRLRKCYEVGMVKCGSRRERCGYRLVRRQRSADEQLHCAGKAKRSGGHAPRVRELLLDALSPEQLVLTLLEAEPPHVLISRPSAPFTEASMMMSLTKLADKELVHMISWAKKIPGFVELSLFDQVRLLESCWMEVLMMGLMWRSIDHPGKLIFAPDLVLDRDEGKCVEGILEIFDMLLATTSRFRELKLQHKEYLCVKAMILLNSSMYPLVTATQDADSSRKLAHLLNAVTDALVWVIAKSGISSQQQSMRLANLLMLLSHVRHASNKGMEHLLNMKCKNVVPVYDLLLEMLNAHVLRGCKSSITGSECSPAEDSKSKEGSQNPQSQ

Canis lupus familiaris [9] = species on record: Canis lupus familiaris; assay: Binding affinity to hound bone powder at 50 uM after 1 to 8 hrs by 1H NMR spectroscopic analysis
[10] = biological target: Collagen alpha-1(I) chain (Canis lupus familiaris) (UniProt Q9XSJ7); assay: Binding affinity to hound collagen 1a1 (unknown origin) at 50 uM after 1 8 hrs by 1H NMR spectroscopic analysis
Sequence of Collagen alpha-1(I) chain (Canis lupus familiaris) (Q9XSJ7 whole entry): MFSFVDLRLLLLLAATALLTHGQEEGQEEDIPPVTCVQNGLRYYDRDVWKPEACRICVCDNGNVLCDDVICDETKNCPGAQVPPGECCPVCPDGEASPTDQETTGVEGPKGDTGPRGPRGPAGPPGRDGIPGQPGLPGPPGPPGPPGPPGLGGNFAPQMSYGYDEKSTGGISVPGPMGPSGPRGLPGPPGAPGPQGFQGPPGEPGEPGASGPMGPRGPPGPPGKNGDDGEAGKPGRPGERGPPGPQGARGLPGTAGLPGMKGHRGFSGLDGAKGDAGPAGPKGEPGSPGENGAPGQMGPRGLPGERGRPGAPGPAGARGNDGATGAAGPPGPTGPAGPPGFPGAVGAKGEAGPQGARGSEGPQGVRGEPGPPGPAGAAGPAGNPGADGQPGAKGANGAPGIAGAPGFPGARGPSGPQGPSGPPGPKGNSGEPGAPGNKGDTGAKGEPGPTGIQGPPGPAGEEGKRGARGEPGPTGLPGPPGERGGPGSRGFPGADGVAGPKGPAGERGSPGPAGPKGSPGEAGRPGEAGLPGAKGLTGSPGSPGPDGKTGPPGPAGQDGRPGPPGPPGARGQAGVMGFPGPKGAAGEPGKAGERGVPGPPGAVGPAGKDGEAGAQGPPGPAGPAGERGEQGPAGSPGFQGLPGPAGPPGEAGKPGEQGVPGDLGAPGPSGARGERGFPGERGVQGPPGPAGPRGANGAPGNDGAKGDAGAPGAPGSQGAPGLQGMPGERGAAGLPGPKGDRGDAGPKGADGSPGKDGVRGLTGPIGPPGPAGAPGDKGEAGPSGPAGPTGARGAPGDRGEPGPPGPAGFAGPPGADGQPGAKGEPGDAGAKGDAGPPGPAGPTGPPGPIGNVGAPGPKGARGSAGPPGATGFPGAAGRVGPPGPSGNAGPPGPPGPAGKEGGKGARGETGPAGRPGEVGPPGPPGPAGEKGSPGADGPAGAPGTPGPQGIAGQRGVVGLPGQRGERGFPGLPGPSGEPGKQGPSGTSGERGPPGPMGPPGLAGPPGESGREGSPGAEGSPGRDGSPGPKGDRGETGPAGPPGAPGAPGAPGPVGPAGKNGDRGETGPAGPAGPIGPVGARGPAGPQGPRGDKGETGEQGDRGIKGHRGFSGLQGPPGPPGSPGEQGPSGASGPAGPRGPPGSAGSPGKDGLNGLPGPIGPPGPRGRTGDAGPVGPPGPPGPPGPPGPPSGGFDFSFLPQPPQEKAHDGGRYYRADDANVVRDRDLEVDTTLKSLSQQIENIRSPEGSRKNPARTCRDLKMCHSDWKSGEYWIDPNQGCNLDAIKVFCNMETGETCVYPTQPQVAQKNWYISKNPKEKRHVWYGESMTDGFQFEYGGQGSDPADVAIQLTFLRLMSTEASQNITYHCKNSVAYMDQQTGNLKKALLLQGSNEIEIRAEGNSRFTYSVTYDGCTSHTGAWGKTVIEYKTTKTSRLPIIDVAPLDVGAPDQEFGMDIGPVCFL

Canis lupus familiaris [11] = species on record: Canis lupus familiaris; assay: Binding affinity to hound bone powder assessed as change in vibration bands at 20 to 50 uM after 1 hr by FTIR analysis
Canis lupus familiaris [12] = species on record: Canis lupus familiaris; assay: […] hound bone beams assessed as energy to fracture at 2 uM by 4 point bending analysis relative to control

Row | Structure (SMILES) | Activity (Canis lupus familiaris [1]) [%] | Activity [2] [%] | Activity (Canis lupus familiaris [3]) [%] | Activity [4] [%] | Ki (Estrogen receptor) [µM] | Activity (Canis lupus familiaris [5]) [%] | Activity (Canis lupus familiaris [6]) [%] | Activity [7] [%] | Activity [8] [%] | Ki (Estrogen receptor beta) [µM] | Activity (Canis lupus familiaris [9]) | Activity [10] | Activity (Canis lupus familiaris [11]) | Activity (Canis lupus familiaris [12]) [%]
1 | NCCCC(O)(P(=O)(O)O)P(=O)(O)O | 41.1 | 100 | 95.6 | 99.7 | – | – | – | – | – | – | – | – | – | –
2 | COc1ccc(Nc2nc(NCc3ccco3)nc(N/N=C(\C)c3ccc(NC(C)=O)cc3)n2)cc1 | 0.3 | 3.9 | -0.5 | 4.1 | – | -0.5 | 0.3 | 3.9 | 4.1 | – | – | – | – | –
3 | C[C@]12CC[C@@H]3c4ccc(O)cc4CC[C@H]3[C@@H]1CC[C@@H]2O | 5.3 | 57.1 | 73.9 | 73 | – | 77.4 | 5.3 | 57.1 | 73.2 | – | – | – | – | –
4 | Oc1ccc(-c2cc3ccc(O)cc3s2)cc1 [RALOXIFENE CORE] | 42.8 | 22.3 | 46.4 | 11.7 | – | 48.6 | 42.8 | 22.3 | 11.7 | 0.0023 | – | – | – | -75

Continued, values first:

Row | Activity (Canis lupus familiaris [1]) [%] | Activity [2] [%] | Activity (Canis lupus familiaris [3]) [%] | Activity [4] [%] | Ki (Estrogen receptor) [µM] | Activity (Canis lupus familiaris [5]) [%] | Activity (Canis lupus familiaris [6]) [%] | Activity [7] [%] | Activity [8] [%] | Ki (Estrogen receptor beta) [µM] | Activity (Canis lupus familiaris [9]) | Activity [10] | Activity (Canis lupus familiaris [11]) | Activity (Canis lupus familiaris [12]) [%] | Structure (SMILES)
5 | -132 | -422 | 89 | -237 | > 10 | 93.1 | -132 | -422 | -238 | > 10 | – | – | – | – | O=C(c1ccc(OCCN2CCCCC2)cc1)c1c(-c2ccccc2)sc2ccccc12
6 | 54.2 | -232 | 99 | -206 | – | 104 | 54.2 | -232 | -207 | – | Active | Active | Active | 16 | O=C(c1ccc(OCCN2CCCCC2)cc1)c1c(-c2ccc(O)cc2)sc2cc(O)ccc12
7 | 26.4 | 13.3 | 34.1 | 15.1 | – | 35.6 | 26.4 | 13.3 | 15.1 | – | Active | Active | – | -36 | O=C(c1ccc(O)cc1)c1c(-c2ccc(O)cc2)sc2cc(O)ccc12
8 | 21 | -57.9 | 73.9 | -286 | – | 77.4 | 21 | -57.9 | -287 | – | Active | Active | – | 25 | COc1ccc2c(C(=O)c3ccc(OCCN4CCCCC4)cc3)c(-c3ccc(O)cc3)sc2c1
